Among the test systems are 786-0 renal; A498 renal; HOP-62 NSCLC; HOP-92 NSCLC; HS 578T breast; K-562 leukemia; KM12 colon; LOX IMVI melanoma; MDA-MB-231 breast; MDA-N; NCI-H226 lung; NCI-H460 lung; NCI/ADR-RES ovarian; OVCAR-3 ovarian; RXF 393 renal; SF-295 CNS; SF-539 CNS; SNB-19 CNS; UACC-257 melanoma; UO-31 renal.
Common to all, as to assay: DTP human tumour cell line panel, 48 h

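Cultured in 96-well plates, cells were exposed to test compound for 48 hours across five concentrations. TGI: concentration producing complete growth inhibition.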

`CCCCCCCCCCCC(=O)OCC(C[As](=O)(O)O)OC(=O)CCCCCCCCCCC` (stereo not given): the TGI – broadly, the concentration at which net growth stops – in the assay with 786-0 renal was 26.7 µM; in the assay with A498 renal, 17.7 µM; in the assay on HOP-62 NSCLC, 78 µM; in the assay with HOP-92 NSCLC it was 4.29 µM; in the assay with HS 578T breast it was 13.3 µM; in the assay with K-562 leukemia, above 38.9 µM. Besides, the concentration for total growth inhibition (TGI) in the assay on KM12 colon was 21.6 µM; in the assay with LOX IMVI melanoma, 18.3 µM; in the assay on MDA-MB-231 breast, 16 µM; with MDA-N, 13 µM; with NCI-H226 lung it was 42.9 µM; in the assay on NCI-H460 lung, 13.3 µM. Besides, the TGI turned out to be 44.5 µM in the assay on NCI/ADR-RES ovarian; 22.8 µM with OVCAR-3 ovarian; 5.86 µM in the assay on RXF 393 renal; 26.7 µM with SF-295 CNS; 32 µM in the assay on SF-539 CNS; 9.38 µM in the assay on SNB-19 CNS. The values for the TGI in the assay with UACC-257 melanoma and with UO-31 renal were 21.9 µM and 17.4 µM, respectively.

Take `C(/C=C/Nc1ccc(Oc2ccccc2)cc1)=Nc1ccc(Oc2ccccc2)cc1`: the TGI in the assay on 786-0 renal is 32.2 µM; in the assay with A498 renal, 29.7 µM; in the assay with HOP-62 NSCLC, 38 µM; with HOP-92 NSCLC, 51.2 µM; in the assay on HS 578T breast it was 43.4 µM; in the assay on K-562 leukemia it was 55.9 µM. In addition, the TGI is 30.3 µM in the assay with KM12 colon; 28.2 µM in the assay on LOX IMVI melanoma; 31.1 µM in the assay on MDA-MB-231 breast; 29.7 µM in the assay on MDA-N; above 100 µM with NCI-H226 lung; 30.6 µM in the assay with NCI-H460 lung. Also, the total growth inhibition concentration (TGI) with NCI/ADR-RES ovarian worked out at 33.5 µM; with OVCAR-3 ovarian it was 34.3 µM; with RXF 393 renal it was 39.6 µM; with SF-295 CNS, 29.4 µM; in the assay on SF-539 CNS, 32.9 µM; with SNB-19 CNS, 31.3 µM. The total growth inhibition concentration (TGI) was determined as 32 µM in the assay with UACC-257 melanoma and 35 µM in the assay with UO-31 renal.

As for `CCCCCCCCCCCCCCCC(=O)OCC(C[As](=O)(O)O)OC(=O)CCCCCCCCCCCCCCC` (stereo not given), the TGI in the assay on 786-0 renal, in the assay on A498 renal, in the assay on HOP-62 NSCLC, in the assay on HOP-92 NSCLC, in the assay on HS 578T breast and in the assay with K-562 leukemia was above 100 µM throughout. Moreover, the total growth inhibition concentration (TGI) in the assay on KM12 colon, with LOX IMVI melanoma, in the assay with MDA-MB-231 breast, in the assay on MDA-N, with NCI-H226 lung and in the assay with NCI-H460 lung was above 100 µM in each case. The concentration for total growth inhibition (TGI) in the assay with NCI/ADR-RES ovarian, with OVCAR-3 ovarian, in the assay with RXF 393 renal, in the assay on SF-295 CNS, in the assay with SF-539 CNS and in the assay with SNB-19 CNS was above 100 µM each time. Further, the concentration for total growth inhibition (TGI) with UACC-257 melanoma and with UO-31 renal was above 100 µM in each case.

Regarding `O=C1c2ccsc2C(=O)c2sc(CO)cc21`, the TGI in the assay with 786-0 renal worked out at 0.855 µM; with A498 renal, 0.792 µM; with HOP-62 NSCLC it was 0.325 µM; in the assay on HOP-92 NSCLC, 0.994 µM; in the assay on HS 578T breast, 0.191 µM; with K-562 leukemia, 2.48 µM. Further, the TGI is 3.08 µM in the assay with KM12 colon; 0.0491 µM in the assay on LOX IMVI melanoma; 0.48 µM in the assay on MDA-MB-231 breast; below 0.0177 µM in the assay with MDA-N; 0.643 µM in the assay with NCI-H226 lung; 2.17 µM with NCI-H460 lung. Also, the TGI was 0.396 µM in the assay on NCI/ADR-RES ovarian; 2.74 µM in the assay with OVCAR-3 ovarian; 1.9 µM in the assay with RXF 393 renal; 0.951 µM in the assay with SF-295 CNS; 0.1 µM in the assay on SF-539 CNS; 0.218 µM in the assay on SNB-19 CNS. The figures for the total growth inhibition concentration (TGI) with UACC-257 melanoma and with UO-31 renal were 0.0993 µM and 0.317 µM, respectively.

Turning to `CCN1CCN(c2nc3ccccc3c3c2CCOc2ccccc2-3)CC1`, the concentration for total growth inhibition (TGI) in the assay with 786-0 renal is above 55.1 µM; in the assay with A498 renal, above 57.4 µM; with HOP-62 NSCLC it was above 100 µM; with HOP-92 NSCLC it was above 73.1 µM; with HS 578T breast it was above 59.2 µM; in the assay with K-562 leukemia it was above 100 µM. Further, the concentration for total growth inhibition (TGI) in the assay on KM12 colon was above 56 µM; in the assay on LOX IMVI melanoma it was 34.1 µM; with MDA-MB-231 breast, above 61.2 µM; with MDA-N, above 55.8 µM; in the assay with NCI-H226 lung, above 77.9 µM; in the assay with NCI-H460 lung, above 73.9 µM. The TGI in the assay on NCI/ADR-RES ovarian is above 78.1 µM; in the assay on OVCAR-3 ovarian, above 100 µM; in the assay on RXF 393 renal, above 65.1 µM; in the assay on SF-295 CNS, above 63 µM; in the assay on SF-539 CNS, above 65.2 µM; in the assay with SNB-19 CNS it was above 75.1 µM. Further, the TGI in the assay with UACC-257 melanoma was 34.8 µM; in the assay on UO-31 renal, above 66 µM.

As for `C[N+]1(C)CCc2cc(O)c(O)cc2C1Cc1ccc(O)c(O)c1` (stereo not given), the total growth inhibition concentration (TGI) with 786-0 renal was above 100 µM; in the assay with A498 renal, above 100 µM; in the assay on HOP-62 NSCLC it was above 100 µM; with HOP-92 NSCLC, 63.7 µM; with HS 578T breast it was above 100 µM; in the assay on K-562 leukemia, above 100 µM. Further, the TGI in the assay on KM12 colon is above 100 µM; in the assay on LOX IMVI melanoma, 81 µM; with MDA-MB-231 breast, above 100 µM; with MDA-N it was 89.1 µM; in the assay on NCI-H226 lung it was above 100 µM; with NCI-H460 lung, above 100 µM. The total growth inhibition concentration (TGI) with NCI/ADR-RES ovarian, in the assay on OVCAR-3 ovarian, with RXF 393 renal, in the assay with SF-295 CNS, in the assay with SF-539 CNS and in the assay with SNB-19 CNS was above 100 µM in each case. Besides, the values for the TGI in the assay with UACC-257 melanoma and in the assay with UO-31 renal were 86.9 µM and above 100 µM, respectively.

For the molecule `CC(=O)ONC(C(=O)C(C)(C)C)C(=O)C(C)(C)C`, the TGI in the assay on 786-0 renal, in the assay with A498 renal, with HOP-62 NSCLC, with HOP-92 NSCLC, with HS 578T breast and in the assay with K-562 leukemia was above 100 µM each time. The total growth inhibition concentration (TGI) with KM12 colon, in the assay on LOX IMVI melanoma, in the assay with MDA-MB-231 breast, with MDA-N, with NCI-H226 lung and in the assay with NCI-H460 lung was above 100 µM in each case. Besides, the concentration for total growth inhibition (TGI) with NCI/ADR-RES ovarian, with OVCAR-3 ovarian, in the assay on RXF 393 renal, in the assay with SF-295 CNS, in the assay with SF-539 CNS and with SNB-19 CNS was above 100 µM in each case. Further, the TGI in the assay on UACC-257 melanoma and with UO-31 renal was above 100 µM in each case.

The values are drawn from PubChem BioAssay (NCI).
